In PubChem BioAssay AID1963842 (Molecular Pharmacology Branch, DTP, NCI, 2024):

Test system: 677734-321-R-J1-PDC complex spheroid viability
Assay: Anticancer human tumor 677734-321-R-J1-PDC patient-derived soft tissue sarcoma cell line growth inhibition [POLQ]
Settings: for IC50: curve of first compound; for viability, T/C: stronger effect = lower value
Outline: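 Three-cell-type spheroids modelling solid tumor plus stroma served as the readout system; POL inhibitors were tested individually and in combination, concentration ranges set by clinical Cmax where known.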
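Also: spheroids exposed to compounds for one week.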
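For viability, T/C in this document: 100% = vehicle DMSO treated spheroids.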

`CC(=O)O[C@H]1C(=O)[C@@]2(C)[C@H]([C@H](OC(=O)c3ccccc3)[C@]3(O)C[C@H](OC(=O)[C@H](O)[C@@H](NC(=O)c4ccccc4)c4ccccc4)C(C)=C1C3(C)C)[C@]1(OC(C)=O)CO[C@@H]1C[C@@H]2O` + COC1C(OC(N)=O)C(O)C(Oc2ccc3c(O)c(NC(=O)c4ccc(O)c(CC=C(C)C)c4)c(=O)oc3c2C)OC1(C)C showed an IC50 (second compound 0.0316 µM) of under 9.49 nM, an IC50 (second compound 0.1 µM) of under 9.49 nM and an IC50 (second compound 0.316 µM) of under 9.49 nM. For the same compound, the IC50 (second compound 1 µM) was under 9.49 nM, the IC50 (second compound 3.16 µM) was under 9.49 nM and the IC50 (second compound 10 µM) was under 9.49 nM. It also gave a viability, T/C (second compound 0.0316 µM, first compound 0.00949 µM) of 44.6%, a viability, T/C (second compound 0.0316 µM, first compound 0.03 µM) of 22.1% and a viability, T/C (second compound 0.0316 µM, first compound 0.0949 µM) of 16.2%. It also gave a viability, T/C (second compound 0.0316 µM, first compound 0.3 µM) of 16.4%, a viability, T/C (second compound 0.0316 µM, first compound 0.949 µM) of 13.5% and a viability, T/C (second compound 0.0316 µM, first compound 3 µM) of 19.1%. For the same compound, the viability, T/C (second compound 0.1 µM, first compound 0.00949 µM) was 41.2%, the viability, T/C (second compound 0.1 µM, first compound 0.03 µM) was 23.5% and the viability, T/C (second compound 0.1 µM, first compound 0.0949 µM) was 20.2%. The viability, T/C (second compound 0.1 µM, first compound 0.3 µM) was 14.9%, the viability, T/C (second compound 0.1 µM, first compound 0.949 µM) was 13.6% and the viability, T/C (second compound 0.1 µM, first compound 3 µM) was 17.5%. The viability, T/C (second compound 0.316 µM, first compound 0.00949 µM) was 36.8%, the viability, T/C (second compound 0.316 µM, first compound 0.03 µM) was 21.3% and the viability, T/C (second compound 0.316 µM, first compound 0.0949 µM) was 16.8%. It also gave a viability, T/C (second compound 0.316 µM, first compound 0.3 µM) of 11.9%, a viability, T/C (second compound 0.316 µM, first compound 0.949 µM) of 13.9% and a viability, T/C (second compound 0.316 µM, first compound 3 µM) of 16.9%. It also gave a viability, T/C (second compound 1 µM, first compound 0.00949 µM) of 37.8%, a viability, T/C (second compound 1 µM, first compound 0.03 µM) of 22.4% and a viability, T/C (second compound 1 µM, first compound 0.0949 µM) of 17.8%. The viability, T/C (second compound 1 µM, first compound 0.3 µM) was 15.2%, the viability, T/C (second compound 1 µM, first compound 0.949 µM) was 14% and the viability, T/C (second compound 1 µM, first compound 3 µM) was 18%. For the same compound, the viability, T/C (second compound 3.16 µM, first compound 0.00949 µM) was 37.8%, the viability, T/C (second compound 3.16 µM, first compound 0.03 µM) was 21.1% and the viability, T/C (second compound 3.16 µM, first compound 0.0949 µM) was 16.2%. For the same compound, the viability, T/C (second compound 3.16 µM, first compound 0.3 µM) was 15.4%, the viability, T/C (second compound 3.16 µM, first compound 0.949 µM) was 13.5% and the viability, T/C (second compound 3.16 µM, first compound 3 µM) was 17.7%. It also gave a viability, T/C (second compound 10 µM, first compound 0.00949 µM) of 45.5%, a viability, T/C (second compound 10 µM, first compound 0.03 µM) of 23.1% and a viability, T/C (second compound 10 µM, first compound 0.0949 µM) of 16.2%. The viability, T/C (second compound 10 µM, first compound 0.3 µM) was 13.2%, the viability, T/C (second compound 10 µM, first compound 0.949 µM) was 14.3% and the viability, T/C (second compound 10 µM, first compound 3 µM) was 16.5%.
